Data from patent US7557244B2, “Substituted biphenyl carboxylic acids and derivatives thereof” (Ortho-McNeil Pharmaceutical, Inc., priority 2006, dated 2009).

Test system: γ-secretase
Experiment: Screening for γ-secretase-modulating activity, Aβ 42 in SKNBE2 cells carrying APP 695-wild type
Type: cell-based
Details: for EC50: read-out: WTAPP SKNBE2 Aβ 42 EC50
Procedure: Screening of the Compounds of the Invention for γ-Secretase-Modulating Activity
Screening was carried out using SKNBE2 cells carrying the APP 695-wild type, grown in DMEM/NUT-mix F12 (HAM) provided by Gibco (cat no. 31330-38) containing 5% Serum/Fe supplemented with 1% non-essential amino acids.
Cells were grown to near confluency.
The screening was performed using the assay as described in Citron et al (1997) Nature Medicine 3: 67.
IC50-Values of Selected Compounds of the Invention on the γ-Secretase Activity.

EC50 | Structure (SMILES) | WTAPP SKNBE2 Aβ 42 % Inhibition at 3 μM
 | CC(C)CC(C(=O)O)c1cc(Nc2cc(F)cc(F)c2)cc(-c2ccc(C(F)(F)F)cc2)c1 (stereo not drawn) [Compound 1, 2-[5-(3,5-Difluoro-phenylamino)-4′-trifluoromethyl-biphenyl-3-yl]-4-methyl-pentanoic acid] | 73%
 | CC(C)CC(C(=O)O)c1cc(Nc2ccc(F)cc2F)cc(-c2ccc(C(F)(F)F)cc2)c1 (stereo not drawn) [Compound 2, 2-[5-(2,4-Difluoro-phenylamino)-4′-trifluoromethyl-biphenyl-3-yl]-4-methyl-pentanoic acid] | 62%
300 nM | CC(C)CC(C(=O)O)c1cc(Nc2cc(C(F)(F)F)cc(C(F)(F)F)c2)cc(-c2ccc(C(F)(F)F)cc2)c1 (stereo not drawn) [Compound 3, 2-[5-(3,5-Bis-trifluoromethyl-phenylamino)-4′-trifluoromethyl-biphenyl-3-yl]-4-methyl-pentanoic acid] | 
290 nM | CC(C)CC(C(=O)O)c1cc(Nc2ccc(C(C)C)cc2)cc(-c2ccc(C(F)(F)F)cc2)c1 (stereo not drawn) [Compound 4, 2-[5-(4-Isopropyl-phenylamino)-4′-trifluoromethyl-biphenyl-3-yl]-4-methyl-pentanoic acid] | 
 | CC(C)CC(C(=O)O)c1cc(Nc2ccc(Cl)cc2)cc(-c2ccc(C(F)(F)F)cc2)c1 (stereo not drawn) [Compound 5, 2-[5-(4-Chloro-phenylamino)-4′-trifluoromethyl-biphenyl-3-yl]-4-methyl-pentanoic acid] | 79%
 | CC(C)CC(C(=O)O)c1cc(Nc2ccc(F)cc2)cc(-c2ccc(C(F)(F)F)cc2)c1 (stereo not drawn) [Compound 6, 2-[5-(4-Fluoro-phenylamino)-4′-trifluoromethyl-biphenyl-3-yl]-4-methyl-pentanoic acid] | 66%
420 nM | CC(C)CC(C(=O)O)c1cc(Nc2cc(Cl)cc(Cl)c2)cc(-c2ccc(C(F)(F)F)cc2)c1 (stereo not drawn) [Compound 7, 2-[5-(3,5-Dichloro-phenylamino)-4′-trifluoromethyl-biphenyl-3-yl]-4-methyl-pentanoic acid] | 
200 nM | CC(C)CC(C(=O)O)c1cc(Nc2cc(C(F)(F)F)ccc2C(F)(F)F)cc(-c2ccc(C(F)(F)F)cc2)c1 (stereo not drawn) [Compound 8, 2-[5-(2,5-Bis-trifluoromethyl-phenylamino)-4′-trifluoromethyl-biphenyl-3-yl]-4-methyl-pentanoic acid] | 
280 nM | CC(C)CC(C(=O)O)c1cc(Nc2ccc(F)cc2C(F)(F)F)cc(-c2ccc(C(F)(F)F)cc2)c1 (stereo not drawn) [Compound 9, 2-[5-(4-Fluoro-2-trifluoromethyl-phenylamino)-4′-trifluoromethyl-biphenyl-3-yl]-4-methyl-pentanoic acid] | 
410 nM | CC(C)CC(C(=O)O)c1cc(Nc2cccc(C(F)(F)F)c2)cc(-c2ccc(C(F)(F)F)cc2)c1 (stereo not drawn) [Compound 10, 4-Methyl-2-[4′-trifluoromethyl-5-(3-trifluoromethyl-phenylamino)-biphenyl-3-yl]-pentanoic acid] | 
500 nM | CC(C)CC(C(=O)O)c1cc(Nc2ccc(C(F)(F)F)cc2)cc(-c2ccc(C(F)(F)F)cc2)c1 (stereo not drawn) [Compound 11, 4-Methyl-2-[4′-trifluoromethyl-5-(4-trifluoromethyl-phenylamino)-biphenyl-3-yl]-pentanoic acid] | 
 | CC(C)CC(C(=O)O)c1cc(Nc2ccc(Cl)c(C(F)(F)F)c2)cc(-c2ccc(C(F)(F)F)cc2)c1 (stereo not drawn) [Compound 12, 2-[5-(4-Chloro-3-trifluoromethyl-phenylamino)-4′-trifluoromethyl-biphenyl-3-yl]-4-methyl-pentanoic acid] | 81%
 | CC(C)CC(C(=O)O)c1cc(Nc2ccc(C#N)cc2)cc(-c2ccc(C(F)(F)F)cc2)c1 (stereo not drawn) [Compound 13, 2-[5-(4-Cyano-phenylamino)-4′-trifluoromethyl-biphenyl-3-yl]-4-methyl-pentanoic acid] | 52%
 | CC(C)CC(C)(C(=O)O)c1cc(Nc2ccc(C#N)cc2)cc(-c2ccc(C(F)(F)F)cc2)c1 (stereo not drawn) [Compound 14, 2-[5-(4-Cyano-phenylamino)-4′-trifluoromethyl-biphenyl-3-yl]-2,4-dimethyl-pentanoic acid] | 17%
 | CC(C)CC(C(=O)O)c1cc(Oc2cccc(C(C)C)c2)cc(-c2ccc(C(F)(F)F)cc2)c1 (stereo not drawn) [Compound 15, 2-[5-(3-Isopropyl-phenoxy)-4′-trifluoromethyl-biphenyl-3-yl]-4-methyl-pentanoic acid] | 65%
2250 nM | CC(C)CC(C(=O)O)c1cc(Oc2ccc(C(F)(F)F)cc2)cc(-c2ccc(C(F)(F)F)cc2)c1 (stereo not drawn) [Compound 16, 4-Methyl-2-[4′-trifluoromethyl-5-(4-trifluoromethyl-phenoxy)-biphenyl-3-yl]-pentanoic acid] | 
1850 nM | CC(C)CC(C(=O)O)c1cc(Oc2cc(F)c(F)c(F)c2)cc(-c2ccc(C(F)(F)F)cc2)c1 (stereo not drawn) [Compound 17, 4-Methyl-2-[4′-trifluoromethyl-5-(3,4,5-trifluoro-phenoxy)-biphenyl-3-yl]-pentanoic acid] | 

EC50 | Structure (SMILES) | WTAPP SKNBE2 Aβ 42 % Inhibition at 3 μM
 | COc1cc(Oc2cc(-c3ccc(C(F)(F)F)cc3)cc(C(CC(C)C)C(=O)O)c2)ccc1F (stereo not drawn) [Compound 18, 2-[5-(4-Fluoro-3-methoxy-phenoxy)-4′-trifluoromethyl-biphenyl-3-yl]-4-methyl-pentanoic acid] | 19%
 | COc1ccc(Oc2cc(-c3ccc(C(F)(F)F)cc3)cc(C(CC(C)C)C(=O)O)c2)cc1C(F)(F)F (stereo not drawn) [Compound 19, 2-[5-(4-Methoxy-3-trifluoromethyl-phenoxy)-4′-trifluoromethyl-biphenyl-3-yl]-4-methyl-pentanoic acid] | 22%
660 nM | CC(C)CC(C(=O)O)c1cc(Oc2cccc(C(F)(F)F)c2)cc(-c2ccc(C(F)(F)F)cc2)c1 (stereo not drawn) [Compound 20, 2 4-Methyl-2-[4′-trifluoromethyl-5-(3-trifluoromethyl-phenoxy)-biphenyl-3-yl]-pentanoic acid] | 
 | CC(C)CC(C(=O)O)c1cc(Oc2cccc(C(F)(F)F)c2)cc(-c2ccc(Cl)c(C(F)(F)F)c2)c1 (stereo not drawn) [Compound 22, 4-Methyl-2-[4′-chloro-3′-trifluoromethyl-5-(3-trifluoromethylphenoxy)-biphenyl-3-yl]-pentanoic acid] | 81%
 | CC(C)CC(C(=O)O)c1cc(Oc2cc(F)cc(F)c2)cc(-c2ccc(Cl)c(C(F)(F)F)c2)c1 (stereo not drawn) [Compound 23, 4-Methyl-2-[4′-chloro-3′-trifluoromethyl-5-(3,5-difluorophenoxy)-biphenyl-3-yl]-pentanoic acid] | 80%
 | CC(C)CC(C(=O)O)c1cc(Oc2ccccc2)cc(-c2ccc(C(F)(F)F)cc2)c1 (stereo not drawn) [Compound 24, 4-Methyl-2-(5-phenoxy-4′-trifluoromethyl-biphenyl-3-yl)-pentanoic acid] | 45%
 | CC(C)CC(C(=O)O)c1cc(Oc2ccc(F)cc2)cc(-c2ccc(C(F)(F)F)cc2)c1 (stereo not drawn) [Compound 25, 2-[5-(4-Fluoro-phenoxy)-4′-trifluoromethyl-biphenyl-3-yl]-4-methyl-pentanoic acid] | 54%
 | CC(C)CC(C(=O)O)c1cc(Oc2cccc(F)c2)cc(-c2ccc(C(F)(F)F)cc2)c1 (stereo not drawn) [Compound 26, 2-[5-(3-Fluoro-phenoxy)-4′-trifluoromethyl-biphenyl-3-yl]-4-methyl-pentanoic acid] | 58%
770 nM | CC(C)CC(C(=O)O)c1cc(Oc2cc(F)cc(F)c2)cc(-c2ccc(C(F)(F)F)cc2)c1 (stereo not drawn) [Compound 27, 2-[5-(3,5-Difluoro-phenoxy)-4′-trifluoromethyl-biphenyl-3-yl]-4-methyl-pentanoicacid] | 
 | COc1ccc(Oc2cc(-c3ccc(C(F)(F)F)cc3)cc(C(CC(C)C)C(=O)O)c2)cc1 (stereo not drawn) [Compound 28, 2-[5-(4-Methoxy-phenoxy)-4′-trifluoromethyl-biphenyl-3-yl]-4-methyl-pentanoic acid] | −3%
 | CC(C)CC(C(=O)O)c1cc(Oc2ccc(Cl)cc2)cc(-c2ccc(C(F)(F)F)cc2)c1 (stereo not drawn) [Compound 29, 2-[5-(4-Chloro-phenoxy)-4′-trifluoromethyl-biphenyl-3-yl]-4-methyl-pentanoic acid] | 62%
 | CC(C)CC(C(=O)O)c1cc(Oc2cccc(C(F)(F)F)c2)cc(-c2cc(F)cc(C(F)(F)F)c2)c1 (stereo not drawn) [Compound 31, 2-[3′-Fluoro-5′-trifluoromethyl-5-(3-trifluoromethyl-phenoxy)-biphenyl-3-yl]-4-methyl-pentanoic acid] | 84%
 | CC(C)CC(C(=O)O)c1cc(Oc2cc(F)cc(C(F)(F)F)c2)cc(-c2cc(F)cc(C(F)(F)F)c2)c1 (stereo not drawn) [Compound 32, 2-[3′-Fluoro-5-(3-fluoro-5-trifluoromethyl-phenoxy)-5′-trifluoromethyl-biphenyl-3-yl]-4-methyl-pentanoic acid] | 87%
 | CC(C)CC(C(=O)O)c1cc(Oc2cc(F)cc(F)c2)cc(-c2cc(F)cc(C(F)(F)F)c2)c1 (stereo not drawn) [Compound 33, 2-[5-(3,5-Difluoro-phenoxy)-3′-fluoro-5′-trifluoromethyl-biphenyl-3-yl]-4-methyl-pentanoic acid] | 59%
260 nM | CC(C)CC(C(=O)O)c1cc(Oc2cc(F)cc(C(F)(F)F)c2)cc(-c2cc(C(F)(F)F)cc(C(F)(F)F)c2)c1 (stereo not drawn) [Compound 34, 2-[5-(3-Fluoro-5-trifluoromethyl-phenoxy)-3′,5′-bis-trifluoromethyl-biphenyl-3-yl]-4-methyl-pentanoic acid] | 
 | CC(C)CC(C(=O)O)c1cc(Oc2cccc(C(F)(F)F)c2)cc(-c2cc(C(F)(F)F)cc(C(F)(F)F)c2)c1 (stereo not drawn) [Compound 35, 2-[3′,5′-Bis-trifluoromethyl-5-(3-trifluoromethyl-phenoxy)-biphenyl-3-yl]-4-methyl-pentanoic acid] | 90%
